System: IM9 cells
Assay: Cellular cytotoxicity on human myeloma cell line IM9 (MTS)
Conditions: read-out: IC50, cellular cytotoxicity, free maytansine derivative
Procedure: In the same manner as in Example 11, the reactivity to the human myeloma cell line IM9 cell (ATCC CCL-159) was investigated. […] Thereafter, a solution of MTS (3-(4,5-dimethylthiazol-2-yl)-5-(3-carboxymethoxyphenyl)-2-(4-sulphophenyl)-2H-tetrazolium, Promega) was added to each well in amounts of 20 μl each, followed by culturing for an additional 2 hours. Subsequently, the absorbance at 490 nm of the surviving cells was assayed using a microplate reader (MTP-300, Corona Electric Co., Ltd.).

Question: COc1cc2cc(c1Cl)N(C)C(=O)C[C@H](OC(=O)[C@H](C)N(C)C(=O)CCSSC)[C@]1(C)O[C@H]1[C@H](C)[C@@H]1C[C@@](O)(NC(=O)O1)[C@H](OC)/C=C/C=C(\C)C2 [May-SS-Me] was tested. Which IC50 did it give?
Answer: 10 nM

— patent US7592005B2, “Monoclonal antibody” (Kirin Beer Kabushiki Kaisha, priority 2000, dated 2009)
